From BindingDB's records for doi:10.1021/acs.biochem.5b00221 (Dalhousie University, 2015)

Target: T1, Mandelate racemase (Pseudomonas putida, UniProt P11444)
T1 sequence (P11444 whole entry): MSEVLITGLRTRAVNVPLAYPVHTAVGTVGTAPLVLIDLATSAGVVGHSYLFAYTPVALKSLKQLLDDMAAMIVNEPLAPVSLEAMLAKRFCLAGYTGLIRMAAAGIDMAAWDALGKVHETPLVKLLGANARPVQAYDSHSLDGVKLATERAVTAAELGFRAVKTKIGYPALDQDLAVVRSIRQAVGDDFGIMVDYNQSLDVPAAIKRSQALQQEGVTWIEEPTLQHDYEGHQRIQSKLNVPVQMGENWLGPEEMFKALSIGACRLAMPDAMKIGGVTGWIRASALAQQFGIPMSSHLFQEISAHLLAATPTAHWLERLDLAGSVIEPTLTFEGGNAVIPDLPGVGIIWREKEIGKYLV
Assay: Circular Dichroism (CD) Based Assays
Details: pH 7.5
Protocol: MR activity was assayed using a CD-based assay by following the change in ellipticity of mandelate at 262 nm using a thermostated quartz cuvette with a 1-cm light path (unless otherwise indicated) as described by Sharp et al. Allassays (total volume of 2 mL) were conducted at 25 °C in Na+ HEPES buffer (0.1 M, pH 7.5) containing MgCl2 (3.3 mM), BSA [0.005% (w/v)], and (R)-mandelate as the substrate. The concentration of MR was determined from its absorbance at 280 nm using an extinction coefficient of 53400 M^−1 cm^−1.

**Q.** How did the Ki turn out when `O=C(O)C(=O)CF` [3-fluoro-2-oxopropanoate] was run?
**A.** 1300 µM

**Q.** For `O=C(O)C(=O)C(=O)O` [Mesoxalate], which Ki is on record?
**A.** 1800 µM
